The target in one series is T1, rat Bcrp (Rattus norvegicus, UniProt Q80W57).
T1 sequence (Q80W57 1-657): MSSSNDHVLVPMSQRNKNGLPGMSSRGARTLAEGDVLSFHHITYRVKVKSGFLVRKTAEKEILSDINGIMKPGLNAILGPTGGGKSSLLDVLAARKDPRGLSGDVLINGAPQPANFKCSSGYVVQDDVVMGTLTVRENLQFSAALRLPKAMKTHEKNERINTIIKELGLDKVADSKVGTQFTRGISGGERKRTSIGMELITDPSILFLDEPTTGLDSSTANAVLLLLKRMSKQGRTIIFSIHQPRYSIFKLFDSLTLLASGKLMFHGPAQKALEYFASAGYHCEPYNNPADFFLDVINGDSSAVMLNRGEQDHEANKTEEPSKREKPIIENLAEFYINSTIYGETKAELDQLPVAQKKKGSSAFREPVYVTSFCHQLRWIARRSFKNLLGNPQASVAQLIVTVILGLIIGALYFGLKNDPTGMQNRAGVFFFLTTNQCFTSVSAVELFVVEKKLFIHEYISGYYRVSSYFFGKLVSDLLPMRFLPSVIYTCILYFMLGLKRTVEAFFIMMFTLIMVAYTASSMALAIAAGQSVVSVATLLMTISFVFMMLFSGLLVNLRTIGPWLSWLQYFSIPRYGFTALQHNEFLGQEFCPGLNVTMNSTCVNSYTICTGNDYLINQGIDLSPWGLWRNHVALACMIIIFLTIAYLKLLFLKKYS
Kind of series: Vesicular transport assay, inside-out membrane vesicles expressing rat Bcrp. The settings on record: 10 min. The protocol:
Inside-out membrane vesicles (5 mg protein/mL), prepared from insect cells expressing human multidrug resistance-associated protein (MRP) 2, MRP3, MRP4, breast cancer resistance protein (BCRP), bile salt export pump (BSEP), and multidrug resistance protein (MDR) one and rat Mrp2, Mrp4, Bcrp, and Bsep, and vesicles (5 mg protein/mL; prepared from the insect cells expressing no ABC transporter; serving as negative control) were obtained from Genomembrane (Kanazawa, Japan).
The test Danshen compounds at 100 µM final concentration were separately incubated with the membrane vesicles for 10 min. Buffer C (50 mM MOPS-tris, 70 mM KCl, 7.5 mM MgCl2, pH 7.0) was used for preincubation and incubation, while buffer D (40 mM MOPS-tris, 70 mM KCl, pH 7.0) was used for vesicle washing. The transport rate (pmol/mg protein/min) of the test Danshen compound was calculated using Equation (2): Transport=(CV×VV)/T/WV (2) where C V, V V, T, and W V represent concentration of the compound in vesicular lysates supernatant (μM), volume of the lysates (μL), incubation time (10 min), and amount of vesicle protein amount per well (0.05 mg), respectively. Differential transport of the test Danshen compound between ATP-containing vesicles and AMP-containing vesicles was defined as net transport ratio (TransportATP/TransportAMP ratio). […] All the incubation samples were analyzed by liquid chromatography/mass spectrometry.

The target of the next series is T2, rat Octn2 (Rattus norvegicus, UniProt O70594).
T2 sequence (O70594 1-557): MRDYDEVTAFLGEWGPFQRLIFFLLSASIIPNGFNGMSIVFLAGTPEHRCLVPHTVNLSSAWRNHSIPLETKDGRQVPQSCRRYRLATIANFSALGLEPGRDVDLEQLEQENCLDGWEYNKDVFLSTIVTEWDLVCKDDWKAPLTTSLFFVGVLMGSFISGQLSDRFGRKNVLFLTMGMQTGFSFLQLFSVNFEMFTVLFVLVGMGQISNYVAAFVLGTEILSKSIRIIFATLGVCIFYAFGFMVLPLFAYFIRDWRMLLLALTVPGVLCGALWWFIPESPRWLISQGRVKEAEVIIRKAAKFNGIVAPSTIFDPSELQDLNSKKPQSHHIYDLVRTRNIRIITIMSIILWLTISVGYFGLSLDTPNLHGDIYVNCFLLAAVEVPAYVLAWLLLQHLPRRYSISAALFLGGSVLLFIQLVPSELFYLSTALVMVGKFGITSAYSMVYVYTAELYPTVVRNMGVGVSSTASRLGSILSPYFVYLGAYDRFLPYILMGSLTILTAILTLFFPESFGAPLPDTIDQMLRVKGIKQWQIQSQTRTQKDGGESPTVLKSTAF
Kind of series: Cellular transport assay, HEK-293 cells expressing rat Octn2. The settings on record: Danshen phenolic acid at 100 μM final concentration, 10 min; rat Octn2-transfected vs mock cells.

The target of another series is T3, human OATP2B1 (Homo sapiens, UniProt O94956).
T3 sequence (O94956 1-709): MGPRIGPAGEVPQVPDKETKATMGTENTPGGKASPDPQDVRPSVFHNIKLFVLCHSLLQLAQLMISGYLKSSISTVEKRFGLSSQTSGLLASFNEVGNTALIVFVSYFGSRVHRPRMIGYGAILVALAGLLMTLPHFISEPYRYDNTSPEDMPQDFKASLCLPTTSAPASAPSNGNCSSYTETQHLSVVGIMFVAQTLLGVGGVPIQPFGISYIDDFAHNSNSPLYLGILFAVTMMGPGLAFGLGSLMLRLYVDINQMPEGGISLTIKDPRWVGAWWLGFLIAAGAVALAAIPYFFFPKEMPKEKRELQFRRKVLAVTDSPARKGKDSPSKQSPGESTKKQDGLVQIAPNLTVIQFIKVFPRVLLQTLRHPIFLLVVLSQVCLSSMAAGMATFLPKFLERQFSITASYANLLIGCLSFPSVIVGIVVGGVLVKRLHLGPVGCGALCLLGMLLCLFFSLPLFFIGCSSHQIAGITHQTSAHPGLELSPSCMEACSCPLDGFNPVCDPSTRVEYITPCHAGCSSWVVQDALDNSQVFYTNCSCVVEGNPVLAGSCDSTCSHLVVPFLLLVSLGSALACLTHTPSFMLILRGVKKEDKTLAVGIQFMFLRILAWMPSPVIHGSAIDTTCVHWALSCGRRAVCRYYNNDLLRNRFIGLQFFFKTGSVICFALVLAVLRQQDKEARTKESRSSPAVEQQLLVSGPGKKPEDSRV
Description: Cellular transport assay, HEK-293 cells expressing human OATP2B1. The conditions noted are these: Danshen phenolic acid at 100 μM final concentration, 10 min; human OATP2B1-transfected vs mock cells.

Where [1] appears, read: Danshen phenolic acid at 100 μM final concentration, rat Bcrp vesicles.

Take `O=C(/C=C/c1ccc(O)c2c1[C@H](C(=O)O)[C@@H](c1ccc(O)c(O)c1)O2)O[C@H](Cc1ccc(O)c(O)c1)C(=O)O` [Lithospermic acid, lithospermic acid]: the “TransportATP/TransportAMP ratio (net transport ratio)” value (“TransportATP/TransportAMP ratio” below) at rat Bcrp (setting [1]) was 1.27 ± 0.20. Also, the “TransportTC/TransportMC ratio (net transport ratio)” value (shortened to “TransportTC/TransportMC ratio”) at rat Octn2 was found to be 0.95 ± 0.11; at human OATP2B1 it was 1.16 ± 0.27.
In the same order, the values of `O=C(O)c1ccc(O)c(O)c1` [Protocatechuic acid, protocatechuic acid] are 0.94 ± 0.21, 0.91 ± 0.17 and 1.36 ± 0.15.
For the molecule `O=C(/C=C/c1ccc(O)c(O)c1)O[C@H](Cc1ccc(O)c(O)c1)C(=O)O` [Rosmarinic acid, rosmarinic acid], the “TransportATP/TransportAMP ratio” value at rat Bcrp (rat, not told, 100 μM, pH 7) is given as 1.45 ± 0.32.
Still for that read-out and setting: with `O=C(/C=C/c1ccc(O)c(O)c1/C=C/c1ccc(O)c(O)c1)O[C@H](Cc1ccc(O)c(O)c1)C(=O)O` [Salvianolic acid A, salvianolic acid A] the figure was 1.31 ± 0.04.
As to `O=C(O)Cc1c(/C=C/C(=O)O[C@H](Cc2ccc(O)c(O)c2)C(=O)O)ccc(O)c1O` [Salvianolic acid D, salvianolic acid D], the “TransportTC/TransportMC ratio” value was found to be 1.12 ± 0.22 at rat Octn2 and 2.27 ± 1.16 on human OATP2B1.
As for salvianolic acid B, on rat Bcrp (setting [1]), the “TransportATP/TransportAMP ratio” value was determined as 1.13 ± 0.14. Further, the “TransportTC/TransportMC ratio” value amounted to 1.25 ± 0.21 at rat Octn2 and 1.32 ± 0.33 at human OATP2B1.

The values above are taken from publication PMC9127186, “Molecular Basis Underlying Hepatobiliary and Renal Excretion of Phenolic Acids of Salvia miltiorrhiza Roots (Danshen)” (Frontiers in Pharmacology, 2022).
